According to patent US20260115202A1, “TOPICAL COMPOSITIONS COMPRISING AN ESTETROL COMPONENT AND USE OF SAID COMPOSITIONS FOR WOUND HEALING” (NEURALIS SA, priority 2022, published 2026):

Experiments:
[1] = system: murine dermal fibroblasts (MDF); experiment: qPCR gene expression in murine dermal fibroblasts; assay type: cell-based, mouse; settings: MDF, 10^−7M, qPCR
Description: Primary human dermal fibroblasts (HDF) were isolated from abdominal skin or leg skin. Primary neonatal normal human epidermal keratinocytes (NHEK) were purchased (Lonza). Murine dermal fibroblasts (MDF), murine epidermal keratinocytes (MEK), murine peritoneal macrophages and murine bone marrow were isolated from C57/B16 (wt). NDb (Lepr+/−) or Db (Lepr−/−) mice. Fibroblasts were isolated and cultured in DMEM supplemented with 10% heat inactivated FBS. 1% penicillin/streptomycin and 1% amphotericin B. At least 4 days prior to performing assays cells were switched to DMEM supplemented with 5% charcoal-stripped FBS. Following treatments, human and murine macrophages were collected in Trizol and RNA isolated using the Trizol plus RNA isolation kit (Invitrogen. Thermo Fisher) according to the manufacturer's instructions. RNA was reverse transcribed to cDNA using GoScript reverse transcriptase (Promega). Quantitative real-time PCR was carried out using 2×Takyon SYBR Green mastermix and a CFX Connect thermocycler. Primers for ERα and ERβ were used to explore changes in ER expression after treatment of MEK and MDF with E2 and E4. To investigate the effect of E2 and E4 on MEK differentiation and the expression of ECM proteins by MDF, primers for. Snail, keratin-1 and fibronectin, collagen I. MMP-2 and MMP-9 were used. Primers for INOS. IL-1B and Tnf-α or Ccl17 were used to assess M1/M2 polarisation status. Primers for GAPDH were used to normalise data. Relative gene expression was set to vehicle controls or M0 expression unless otherwise stated. In vitro cultured murine fibroblasts were treated with either E2, E4, DPN or PPT at 10^−7M. As previously reported. […] Next, zymography was performed on cell supernatants from HDFs treated with either E2 or E4, to evaluate the effect of E2 and E4 on cell-derived MMP activity. […] The magnitude of the effect (and statistical significance) was greater in cells treated with E4. No MMP9 activity was detected in any treatment group. Finally, we explored the effect of E2 and E4 on murine fibroblast expression of extracellular matrix genes, specifically collagen 1 (Colal) and fibronectin (Fn1) (FIG. 20).

[2] = system: human dermal fibroblasts (HDF); experiment: Scratch wound assay, human dermal fibroblasts; assay type: cell-based; settings: HDF, 24 hours, preliminary
Description: Primary human dermal fibroblasts (HDF) were isolated from abdominal skin or leg skin. Primary neonatal normal human epidermal keratinocytes (NHEK) were purchased (Lonza). Murine dermal fibroblasts (MDF), murine epidermal keratinocytes (MEK), murine peritoneal macrophages and murine bone marrow were isolated from C57/B16 (wt). NDb (Lepr+/-) or Db (Lepr-/-) mice. Fibroblasts were isolated and cultured in DMEM supplemented with 10% heat inactivated FBS. 1% penicillin/streptomycin and 1% amphotericin B. At least 4 days prior to performing assays cells were switched to DMEM supplemented with 5% charcoal-stripped FBS. Cells were seeded into 24 well plates and cultured to form a confluent monolayer, and then scratched with a 1 ml pipette tip. Wells were treated with E2, E4 and/or various estrogen receptor agonists and antagonists. […] A vehicle control containing the equivalent concentration of EtOH and/or DMSO was included, in addition to an untreated negative control. All treatments were diluted to working concentrations in media supplemented with 2% charcoal-stripped FBS. To visualise scratches at the defined endpoint, cells were stained with crystal violet and imaged on a Nikon E400 brightfield microscope. Scratch closure was determined from multiple independent measurements per well. Scratch assays were performed to quantify the effect of E2 and E4 at varying concentrations on HDF migration (FIG. 14). […] 10^-7M and 10^-6M (152%. 147% and 142% respectively). Thus, both E2 and E4 optimally stimulated fibroblast scratch wound closure at 10^-8M, with the higher magnitude of stimulation observed following E2 treatment. Next, an additional experiment was performed using HDF to a) further confirm the effects of E2 and E4 in fibroblasts from a fifth donor and b) explore the relative effect of including CS-FBS in the cell culture media. Three identical sets of scratch assays were performed (comparing vehicle to E2 or E4 treatment at 10^-7M) in DMEM containing either 2% CS-FBS. 0% FBS or 2% FBS (not CS).

[3] = system: mouse bone marrow derived macrophages (BMDM); experiment: M1-polarised murine bone marrow derived macrophages, qPCR of M1 markers; assay type: cell-based; settings: M1 polarised BMDM, E4 10^−7M, preliminary
Description: Bones were flushed with DMEM supplemented with 1% penicillin/streptomycin and 1% amphotericin B. Bone marrow cells were seeded into 12- or 6-well plates at 1×10^6 cells/ml in DMEM supplemented with 10% FBS and 10% L929-conditioned medium to induce differentiation. After 7-10 days, differentiated macrophages were treated with 10^−7M E2 or E4 in serum free growth medium for 16 hours and polarised to M1-type cells using 100 ng/ml IFN-γ and 1 μg/ml LPS. Following 6- or 24-hours polarisation cells were collected for RNA isolation or flow cytometry.
Following treatments, human and murine macrophages were collected in Trizol and RNA isolated using the Trizol plus RNA isolation kit (Invitrogen. Thermo Fisher) according to the manufacturer's instructions. RNA was reverse transcribed to cDNA using GoScript reverse transcriptase (Promega). Quantitative real-time PCR was carried out using 2×Takyon SYBR Green mastermix and a CFX Connect thermocycler. Primers for ERα and ERβ were used to explore changes in ER expression after treatment of MEK and MDF with E2 and E4. To investigate the effect of E2 and E4 on MEK differentiation and the expression of ECM proteins by MDF, primers for. Snail, keratin-1 and fibronectin, collagen I. MMP-2 and MMP-9 were used. Primers for INOS. IL-1B and Tnf-α or Ccl17 were used to assess M1/M2 polarisation status. Primers for GAPDH were used to normalise data. Relative gene expression was set to vehicle controls or M0 expression unless otherwise stated.
For follow up experiments murine bone marrow derived monocytes were isolated, differentiated (L929 media) and polarised to a pro-inflammatory M1 phenotype (IFN-γ and LPS: for 6 or 24 hours), and co-treated with either E2 or E4 at the optimal concentration identified in THP1 cells (10^−7: FIG. 24). […] Experiments were then undertaken with murine bone marrow derived monocytes differentiated to macrophages with 30 ng/ml MCSF, as opposed to L929 conditioned media.

SMILES | expression of ERα and ERβ [1] | effect of ER antagonist co-treatment on E4-induced scratch closure [2] | effect of ER antagonist co-treatment on E4-mediated reduction in IL1-β [3]
CCCc1c(-c2ccc(O)cc2)nn(-c2ccc(O)cc2)c1-c1ccc(O)cc1 [PPT] | increased ERα | – | –
N#CC(Cc1ccc(O)cc1)c1ccc(O)cc1 (stereo not shown) [DPN] | increased ERβ expression | – | –
Cc1c(-c2ccc(O)cc2)nn(-c2ccc(O)cc2)c1-c1ccc(OCCN2CCCCC2)cc1 [MPP, reference compound] | – | appears to block E4-induced scratch closure | appears to block E4-induced scratch closure and E4-mediated reduction in IL1-β
